“Also recorded” adds a separate entry of the source.
Key:
PD-L2 gene expression = PD-L2 gene expression (qPCR) in MM BMMCs co-cultured with THP-1 monocytes; format: cell-based, human; details: BMMCs from MM patient #3041 co-cultured with THP-1 monocytes, RUX 1 μM, 48 hours
Description: (§1) MM patient #3041 bone marrow mononuclear cells were co-cultured with THP-1 monocytes with or without RUX (from […] to 10 μM) for 48 hours.
(§2) Next, we investigated the effects of ruxolitinib (RUX) on PD-L1 and PD-L2 gene expression in MM bone marrow mononuclear cells (BMMCs) co-cultured with THP-1 monocytes. THP-1 monocytes co-cultured with primary BMMCs from MM patient #3041 were grown in the presence or absence of RUX (1 μM).

PD-L1 gene expression = PD-L1 gene expression (qPCR) in MM BMMCs co-cultured with THP-1 monocytes; format: cell-based, human; details: BMMCs from MM patient #3041 co-cultured with THP-1 monocytes, RUX 1 μM, 48 hours
Description: as §1, §2

N#CC[C@H](C1CCCC1)n1cc(-c2ncnc3[nH]ccc23)cn1 [RUX, ruxolitinib]
PD-L2 gene expression in MM BMMCs (PD-L2 gene expression): marked decrease; also recorded: inhibits
PD-L1 gene expression in MM BMMCs (PD-L1 gene expression): marked decrease; also recorded: inhibits

— US20220000872A1, “METHOD OF ENHANCING IMMUNE-BASED THERAPY” (OncoTracker, Inc., priority 2018, published 2022)
